Source: EP0028959A1, “5,8,13,13a-Tetrahydro-6H-dibenzo(a,g)quinolizine derivatives, process for their preparation and pharmaceutical compositions containing them” (U.R.P.H.A., priority 1979, dated 1981)
Read-outs that look alike come from different tables or passages of the source.

Columns and labels:
aorte isolée du rat = assay: Inhibition of phenylephrine-induced contraction of isolated rat aorta; type: cell-based; details: read-out: EFFET SUR L'AORTE DE RAT I50
Source text: (§1) L'inhibition des réponses contractiles maximales provoquées par la Phényléphrine ([…]) a été étudiée sur l'aorte isolée du rat préparée suivant la technique décrite par VALETTE,G. et BA MUOI, N. (Ann. Pharm. franc. 1962, 20, 557-582) et sur le segment proximal et le segment distal de l'artère caudale suivant la technique-décrite par WORCEL, M. (J. Pharmacol. Exp. Therm. 1978, 207, 210-330). Dans tous les cas, les dérivés STB se sont comportés comme de puissants antagonistes non compétitifs de la Phényléphrine. Leurs concentrations inhibitrices 50% (ID50) sont indiquées dans le tableau 2. Comme c'est le cas pour d'autres vasodilatateurs (comme l'Hydralazine), l'- artère caudale est plus sensible que l'aorte à l'effet inhibiteur des dérivés étudiés.

artère caudale proximale = assay: Inhibition of phenylephrine-induced contraction of isolated rat caudal artery, proximal segment; type: cell-based; details: read-out: EFFET SUR L'ARTERE CAUDALE DE RAT I50 SEGMENT PROXIMAL
Source text: as §1

artère caudale distale = assay: Inhibition of phenylephrine-induced contraction of isolated rat caudal artery, distal segment; type: cell-based; details: read-out: EFFET SUR L'ARTERE CAUDALE DE RAT I50 SEGMENT DISTAL
Source text: as §1

[1] = test system: oreillette droite isolée de cobaye; assay: Frequency of spontaneously beating isolated guinea pig right atrium; type: cell-based; details: for Inhibition % du rythme de base / Inhibition % du rythme maximal en présence d'isoprotérénol: mean of 3 experiments ± erreur type; for effet sur la fréquence: result in words, comment on tableau 3
Source text: (§2) Les effets sur le rythme et sur la concentration cardiaques ont été respectivement mis en évidence sur l'oreillette droite battant spontanément et sur l'oreillette gauche stimulée électriquement, suivant la technique décrite par GROSSMANN A., FURCHGOTT R. (J. Pharmacol. Exp. Ther. 1964, 143, 107-119).

[2] = test system: oreillette gauche isolée de cobaye; assay: Contractile force of electrically stimulated isolated guinea pig left atrium; type: cell-based; details: for effet sur la force contractile: result in words, comment on tableau 3
Source text: as §2

[3] = Acute toxicity, DL 50 in mice (Litchfield and Wilcoxon method); type: in vivo, souris; details: mouse, in vivo, DL 50 and its upper and lower limits for p = 0,05
Method: (§3) La DL 50 a été déterminée chez la souris par la méthode de LITCHFIELD et WILCOXON (J. Pharmacol. 1949 96, 99-113). Les dérivés étudiés ont été administrés en solution aqueuse additionnée de 7% de diméthylformamide, gavage oesophagien de 0,4 ml/20g) à des souris mâles pesant de 20 à 25g.
(§4) C'est pourquoi, il a été comparé au STB 0 par injection intrapéritonéale (même solution et même volume injectés par voie orale).

[4] = test system: effets hypertenseurs de l'adrénaline chez le chien; details: Raymond Hamet 1952, 1953; cited from earlier work
muscle lisse = details: Raymond Hamet 1952, 1953; cited from earlier work
patients hypertendus = details: Faquet, Lisle et Combaz 1954; cited from earlier work
[5] = test system: rat anesthésié par l' "Inactine"; assay: Cardiac output (thermodilution), arterial pressure and peripheral vascular resistance in Inactine-anaesthetised rats; type: in vivo; design: Volume éjection systolique: unit not given here; details: Après: 45 minutes after 15 mg.kg^-1 i.p., n=7, mean ± erreur type
Method: Les effets sur le débit cardiaque et la résistance vasculaire périphérique ont été mesurés chez le rat anesthésié par l' "Inactine" (70 mg.kg^-1), voie intrapéritonéale). Le débit a été mesuré par thermodilution suivant la technique décrite par HONDAS et al (Path. Biol. 1979, 17 1069-1078). La pression moyenne a été enregistrée à l'aide d'un cathéter placé dans l'artère fémorale du rat. Les mesures ont été faites avant et entre 45 et 60 minutes après l'administration intra-péritonéale des anti-hypertenseurs. Chaque chiffre expérimental représente la moyenne de trois mesures successives. Les résultats, donnés à titre d'exemple dans le tableau 1, ci-après,en ce qui concerne le STB 6, montrent que l'administration de l'anti-hypertenseur provoque une importante chute de pression artérielle imputable à une diminution marquée de la résistance vasculaire périphérique et sans variation significative du débit et du rythme cardiaques, ni du volume d'éjection systolique.

souris = assay: Acute toxicity, DL 50 in mice (Litchfield and Wilcoxon method); type: in vivo; details: result in words, comment on tableau 4
Method: as §3, §4

[6] = Solubility in the dosing solution (aqueous solution with 7% dimethylformamide); type: physicochemical; details: reason why oral DL 50 could not be determined; result in words
Method: as §3, §4

[7] = contraction by phényléphrine 1.10^-5M, mean of at least 3 experiments ± erreur type
[8] = contraction by phényléphrine 1.10^-6M, mean of at least 3 experiments ± erreur type
[9] = contraction by phényléphrine 5.10^-6M, mean of at least 3 experiments ± erreur type
[10] = Concentration 5.10^-5 mole/l, stimulated at 2,5 Hz, mean of 3 experiments ± erreur type, read-out: Variation % de la force contractile de base
[11] = read-out: Variation % de la force contractile de base

| SMILES | IC50 (aorte isolée du rat; [7]) [µM] | IC50 (artère caudale proximale; [8]) [µM] | IC50 (artère caudale distale; [9]) [µM] | Inhibition % du rythme de base ([1]; Concentration 5.10^-5 mole/l) [%] | Inhibition % du rythme maximal en présence d'isoprotérénol ([1]; Concentration 5.10^-5 mole/l) | effet sur la fréquence [1] | activation at 50 µM [2, 10] [%] | effet sur la force contractile [2] | LD50 ([3]; po, per os, male mice 20 à 25g) [mg/kg] | LD50 ([3]; ip.) [mg/kg] | toxicité aiguë, comparison (souris) | IC50 (aorte isolée du rat) [µM] | IC50 (artère caudale proximale) [µM] | IC50 (artère caudale distale) [µM] | further results |
| --- | --- | --- | --- | --- | --- | --- | --- | --- | --- | --- | --- | --- | --- | --- | --- |
| c1ccc2c(c1)CC1c3ccccc3CCN1C2 (stereo not drawn) [STB0, 5,8,13,13a-tétrahydro-6H-dibenzo [a,g] quinolizine, reference compound] | 13 | 0.3 | 1.3 | 46 ± 5 | 38 ± 6% | déprime fortement | -47 | déprime fortement | 464 | 262 | – | – | – | – | effets hypertenseurs de l'adrénaline [4]: inverse les effets hypertenseurs de l'adrénaline; contraction du muscle lisse provoquée par l'ion K^+ (muscle lisse): inhibe la contraction du muscle lisse; action hypotensive (patients hypertendus): exerce une action hypotensive |
| Oc1ccc2c(c1)CCN1Cc3ccccc3CC21 (stereo not drawn) [STB4, 3-hydroxy-5,8,13,13a-tétrahydro-6H-dibenzo [a, g] quinolizine] | 26 | 1 | 1.9 | – | – | subsistent de façon moins marquée | – | ne diminuent pas la force contractile | 464 | – | – | – | – | – | Inhibition % du rythme de base ([1]; Concentration 45.10^-5 mole/l): 13,8 ± 5,8%; Inhibition % du rythme maximal en présence d'isoprotérénol ([1]; Concentration 45.10^-5 mole/l): 28,7 ± 1,8%; Variation % de la force maximale en présence d'isoprotérénol ([2]; Concentration 45.10^-5 mole/l, stimulated at 2,5 Hz, mean of 3 experiments ± erreur type): 0%; activation at 450 µM ([2]; Concentration 45.10^-5 mole/l, stimulated at 2,5 Hz, mean of 3 experiments ± erreur type, read-out: Variation % de la force contractile de base): 0% |
| COc1cc2c(cc1OC)CN1CCc3cc(O)ccc3C1C2 (stereo not drawn) [STB6, 3-hydroxy-10,11-diméthoxy-5,8,13,13a-tétrahydro-6H-dibenzo [a, g] quinolizine] | 59 | 1.1 | 2.1 | 8 ± 5 | 21,6 ± 1,2% | subsistent de façon moins marquée | 32 | augmentent fortement la force contractile | 275 | – | le plus toxique | – | – | – | Volume éjection systolique ([5]; n.s., Avant: 0,71 ± 0,04): 0,78 ± 0,035; débit cardiaque (DC) ([5]; n.s., Avant: 237,7 ± 12,9): 293,9 ±18,7 n.s. ml, mn.kg^-1; Rythme ([5]; n.s., Avant: 386 ± 11): 374 ± 12 n.s. systoles/mn; pression artérielle moyenne (PA) ([5]; p≤ 0,01, Avant: 150,2 ± 3,9): ‡‡‡ 89,1 ± 3,3 mmHg; résistance vasculaire périphérique totale (RVPt) ([5]; p≤ 0,01, Avant: 728,9 ± 29,2): ‡‡‡ 412,2 ± 17,8 dynes.mn.cm^-5.kg^-1; Variation % de la force maximale en présence d'isoprotérénol ([2]; Concentration 5.10^-5 mole/l, stimulated at 2,5 Hz, mean of 3 experiments ± erreur type): 0% |
| COc1cc2c(cc1OC)CN1CCc3cc(OC(=O)Cc4ccccc4)ccc3C1C2 (stereo not drawn) [STB52, 3-phénacétyloxy-10,11-diméthoxy-5,8,13,13a tétrahydro-6H-dibenzo [a, g] quinolizine] | – | – | – | – | – | subsistent de façon moins marquée | – | augmentent fortement la force contractile | 550 | – | – | 51 | 2.1 | 4.3 | Inhibition % du rythme de base ([1]; Concentration 5.10^-6 mole/l): 14 ± 7%; Inhibition % du rythme maximal en présence d'isoprotérénol ([1]; Concentration 5.10^-6 mole/l): 17 ± 3%; activation at 5 µM [2, 11]: 90% |
| O=C(Cc1ccccc1)Oc1ccc2c(c1)CCN1Cc3ccccc3CC21 (stereo not drawn) [STB69, 3-phénacétyloxy-5,8,13,13a-tétrahydro-6H-dibenzo-[a, g] quinolizine] | – | – | – | 0 | 12,5 ± 2,7% | pratiquement dépourvu d'action | – | pratiquement dépourvu d'action | > 650 | 378 | le moins toxique | 58 | 1.5 | 3.1 | activation at 50 µM [2, 11]: 12.6%; solubilité [6]: solubilité insuffisante |
